Assay results as given in patent US9624206B2, “Antibacterial 1H-indazole and 1H-indole derivatives” (priority 2013, dated 2017).
Values after ≈ are worked out from the molar mass of the structure shown.

Experiments:
Experiment in all cases: Bacterial growth minimal inhibitory concentration (microdilution, CLSI M7-A7)
Type in all cases: cell-based
[1] = test system: Acinetobacter baumannii T6474; settings: Acinetobacter baumannii, T6474; multiply-resistant strain (in particular quinolone-resistant); cation-adjusted Mueller-Hinton Broth
Method: (§1) Minimal Inhibitory Concentrations (MICs; mg/L) were determined in cation-adjusted Mueller-Hinton Broth by a microdilution method following the description given in “Methods for Dilution Antimicrobial Susceptibility Tests for Bacteria that Grow Aerobically”, Approved standard, 7th ed., Clinical and Laboratory Standards Institute (CLSI) Document M7-A7, Wayne, Pa., USA (2006).
(§2) All Example compounds were tested against several Gram-positive and Gram-negative bacteria. […] K. pneumoniae A-651 and Acinetobacter baumannii T6474 are multiply-resistant strains (in particular quinolone-resistant), while E. coli ATCC25922 and P. aeruginosa ATCC27853 are quinolone-sensitive strains.

[2] = test system: E. coli ATCC25922; settings: Escherichia coli, ATCC25922; quinolone-sensitive strain; cation-adjusted Mueller-Hinton Broth
Method: as §1, §2

[3] = test system: P. aeruginosa ATCC27853; settings: Pseudomonas aeruginosa, ATCC27853; quinolone-sensitive strain; cation-adjusted Mueller-Hinton Broth
Method: as §1, §2

[4] = test system: K. pneumoniae A-651; settings: Klebsiella pneumoniae, A651; multiply-resistant strain (in particular quinolone-resistant); cation-adjusted Mueller-Hinton Broth
Method: as §1, §2

Structure (SMILES) | MIC [1] | MIC [2] | MIC [3] | MIC [4]
C[C@@](CCn1ccc2cc(C#CC#CC3(O)COC3)ccc21)(C(=O)NO)S(C)(=O)=O [Example 11, (R)—N-hydroxy-4-(5-((3-hydroxyoxetan-3-yl)buta-1,3-diyn-1-yl)-1H-indol-1-yl)-2-methyl-2-(methylsulfonyl)butanamide] | 16 µg/mL (≈ 37.2 µM) | 0.5 µg/mL (≈ 1.16 µM) | 1 µg/mL (≈ 2.32 µM) | 0.25 µg/mL (≈ 0.581 µM)
C[C@@](CCn1ncc2cc(C#Cc3ccc(C4(O)COC4)cc3)ccc21)(C(=O)NO)S(C)(=O)=O [Example 12, (R)—N-hydroxy-4-(5-((4-(3-hydroxyoxetan-3-yl)phenyl)ethynyl)-1H-indazol-1-yl)-2-methyl-2-(methylsulfonyl)butanamide] | 0.25 µg/mL (≈ 0.517 µM) | 0.25 µg/mL (≈ 0.517 µM) | 1 µg/mL (≈ 2.07 µM) | 0.25 µg/mL (≈ 0.517 µM)
C[C@@](CCn1ncc2cc(C#CC#CC3(O)CSC3)ccc21)(C(=O)NO)S(C)(=O)=O [Example 13, (R)—N-hydroxy-4-(5-((3-hydroxythietan-3-yl)buta-1,3-diyn-1-yl)-1H-indazol-1-yl)-2-methyl-2-(methylsulfonyl)butanamide] | 8 µg/mL (≈ 17.9 µM) | 0.25 µg/mL (≈ 0.559 µM) | 1 µg/mL (≈ 2.23 µM) | 0.25 µg/mL (≈ 0.559 µM)
C[C@@](CCn1ncc2cc(C#Cc3ccc(CCO)cc3)ccc21)(C(=O)NO)S(C)(=O)=O [Example 14, (R)—N-hydroxy-4-(5-((4-(2-hydroxyethyl)phenyl)ethynyl)-1H-indazol-1-yl)-2-methyl-2-(methylsulfonyl)butanamide] | 0.125 µg/mL (≈ 0.274 µM) | ≤ 0.063 µg/mL | 1 µg/mL (≈ 2.2 µM) | 0.25 µg/mL (≈ 0.549 µM)
C[C@@H](O)c1ccc(C#Cc2ccc3c(cnn3CC[C@](C)(C(=O)NO)S(C)(=O)=O)c2)cc1.Cl [Example 16, (R)—N-hydroxy-4-(5-((4-((R)-1-hydroxyethyl)phenyl)ethynyl)-1H-indazol-1-yl)-2-methyl-2-(methylsulfonyl)butanamide hydrochloride] | 0.25 µg/mL | ≤ 0.063 µg/mL | 1 µg/mL | 0.125 µg/mL
C[C@@](CCn1ccc2cc(C#CC#C[C@H]3C[C@@H]3CO)ccc21)(C(=O)NO)S(C)(=O)=O [Example 17, (R)—N-hydroxy-4-(5-(((1S,2S)-2-(hydroxymethyl)cyclopropyl)buta-1,3-diyn-1-yl)-1H-indol-1-yl)-2-methyl-2-(methylsulfonyl)butanamide] | 16 µg/mL (≈ 37.3 µM) | ≤ 0.063 µg/mL | 0.5 µg/mL (≈ 1.17 µM) | 0.125 µg/mL (≈ 0.292 µM)
C[C@@](CCn1ccc2cc(C#CC#C[C@@H]3C[C@H]3CO)ccc21)(C(=O)NO)S(C)(=O)=O [Example 18, (R)—N-hydroxy-4-(5-(((1R,2R)-2-(hydroxymethyl)cyclopropyl)buta-1,3-diyn-1-yl)-1H-indol-1-yl)-2-methyl-2-(methylsulfonyl)butanamide] | 16 µg/mL (≈ 37.3 µM) | ≤ 0.063 µg/mL | 0.5 µg/mL (≈ 1.17 µM) | ≤ 0.063 µg/mL
C[C@@](CCn1ncc2cc(C#Cc3ccc([C@H]4C[C@@H]4CO)cc3)ccc21)(C(=O)NO)S(C)(=O)=O [Example 19, (R)—N-hydroxy-4-(5-((4-((1S,2S)-2-(hydroxymethyl)cyclopropyl)phenyl)ethynyl)-1H-indazol-1-yl)-2-methyl-2-(methylsulfonyl)butanamide] | ≤ 0.063 µg/mL | 0.125 µg/mL (≈ 0.26 µM) | 1 µg/mL (≈ 2.08 µM) | 0.25 µg/mL (≈ 0.519 µM)
C[C@@](CCn1ncc2cc(C#Cc3ccc([C@@H]4C[C@H]4CO)cc3)ccc21)(C(=O)NO)S(C)(=O)=O [Example 20, (R)—N-hydroxy-4-(5-((4-((1R,2R)-2-(hydroxymethyl)cyclopropyl)phenyl)ethynyl)-1H-indazol-1-yl)-2-methyl-2-(methylsulfonyl)butanamide] | ≤ 0.063 µg/mL | ≤ 0.063 µg/mL | 1 µg/mL (≈ 2.08 µM) | 0.25 µg/mL (≈ 0.519 µM)
C[C@@](CCn1ncc2cc(C#Cc3ccc([C@@H](O)CO)cc3)ccc21)(C(=O)NO)S(C)(=O)=O [Example 21, (R)-4-(5-((4-((R)-1,2-dihydroxyethyl)phenyl)ethynyl)-1H-indazol-1-yl)-N-hydroxy-2-methyl-2-(methylsulfonyl)butanamide] | 0.5 µg/mL (≈ 1.06 µM) | 1 µg/mL (≈ 2.12 µM) | 1 µg/mL (≈ 2.12 µM) | 1 µg/mL (≈ 2.12 µM)
C[C@@](CCn1ncc2cc(C#Cc3ccc([C@H](O)CO)cc3)ccc21)(C(=O)NO)S(C)(=O)=O [Example 22, (R)-4-(5-((4-((S)-1,2-dihydroxyethyl)phenyl)ethynyl)-1H-indazol-1-yl)-N-hydroxy-2-methyl-2-(methylsulfonyl)butanamide] | 0.5 µg/mL (≈ 1.06 µM) | 0.5 µg/mL (≈ 1.06 µM) | 1 µg/mL (≈ 2.12 µM) | 1 µg/mL (≈ 2.12 µM)
C[C@H](O)c1ccc(C#Cc2ccc3c(cnn3CC[C@](C)(C(=O)NO)S(C)(=O)=O)c2)cc1 [Example 23, (R)—N-hydroxy-4-(5-((4-((S)-1-hydroxyethyl)phenyl)ethynyl)-1H-indazol-1-yl)-2-methyl-2-(methylsulfonyl)butanamide] | 0.125 µg/mL (≈ 0.274 µM) | 0.125 µg/mL (≈ 0.274 µM) | 1 µg/mL (≈ 2.2 µM) | 0.5 µg/mL (≈ 1.1 µM)
CC(C)(N)C#CC#Cc1ccc2c(cnn2CC[C@](C)(C(=O)NO)S(C)(=O)=O)c1 [Example 24, (R)-4-(5-(5-amino-5-methylhexa-1,3-diyn-1-yl)-1H-indazol-1-yl)-N-hydroxy-2-methyl-2-(methylsulfonyl)butanamide] | > 32 µg/mL | 1 µg/mL (≈ 2.4 µM) | 1 µg/mL (≈ 2.4 µM) | 4 µg/mL (≈ 9.6 µM)
C[C@@](CCn1ccc2cc(C#Cc3ccc(C4(CO)CC4)cc3)ccc21)(C(=O)NO)S(C)(=O)=O [Example 25, (R)—N-hydroxy-4-(5-((4-(1-(hydroxymethyl)cyclopropyl)phenyl)ethynyl)-1H-indol-1-yl)-2-methyl-2-(methylsulfonyl)butanamide] | 0.5 µg/mL (≈ 1.04 µM) | 0.25 µg/mL (≈ 0.52 µM) | 2 µg/mL (≈ 4.16 µM) | 0.5 µg/mL (≈ 1.04 µM)
C[C@@](CCn1ncc2cc(C#CC#C[C@H]3C[C@@H]3CO)ccc21)(C(=O)NO)S(C)(=O)=O [Example 26, (R)—N-hydroxy-4-(5-(((1S,2S)-2-(hydroxymethyl)cyclopropyl)buta-1,3-diyn-1-yl)-1H-indazol-1-yl)-2-methyl-2-(methylsulfonyl)butanamide] | 2 µg/mL (≈ 4.66 µM) | ≤ 0.063 µg/mL | 0.5 µg/mL (≈ 1.16 µM) | 0.125 µg/mL (≈ 0.291 µM)
C[C@@](CCn1ncc2cc(C#Cc3ccc(OCCO)cc3)ccc21)(C(=O)NO)S(C)(=O)=O [Example 27, (R)—N-hydroxy-4-(5-((4-(2-hydroxyethoxy)phenyl)ethynyl)-1H-indazol-1-yl)-2-methyl-2-(methylsulfonyl)butanamide] | 0.125 µg/mL (≈ 0.265 µM) | 0.25 µg/mL (≈ 0.53 µM) | 2 µg/mL (≈ 4.24 µM) | 0.5 µg/mL (≈ 1.06 µM)
C[C@@](CCn1ncc2cc(C#Cc3ccc(NC(=O)CO)cc3)ccc21)(C(=O)NO)S(C)(=O)=O [Example 28, (R)—N-hydroxy-4-(5-((4-(2-hydroxyacetamido)phenyl)ethynyl)-1H-indazol-1-yl)-2-methyl-2-(methylsulfonyl)butanamide] | 0.5 µg/mL (≈ 1.03 µM) | 1 µg/mL (≈ 2.06 µM) | 4 µg/mL (≈ 8.26 µM) | 2 µg/mL (≈ 4.13 µM)
CC(C)(O)c1ccc(C#Cc2ccc3c(ccn3CC[C@](C)(C(=O)NO)S(C)(=O)=O)c2)cc1 [Example 29, (R)—N-hydroxy-4-(5-((4-(2-hydroxypropan-2-yl)phenyl)ethynyl)-1H-indol-1-yl)-2-methyl-2-(methylsulfonyl)butanamide] | 0.5 µg/mL (≈ 1.07 µM) | 0.25 µg/mL (≈ 0.534 µM) | 2 µg/mL (≈ 4.27 µM) | 0.5 µg/mL (≈ 1.07 µM)
